Source: BindingDB's records for doi:10.1111/cbdd.12801 (2016)

What was measured:
Conditions in all cases: pH 7.4; 25 °C
[1] = biological target: T1, Adenosine receptor A1 (Homo sapiens, UniProt P30542); experiment: A1 Adenosine Receptor Binding Assay
T1 sequence (P30542 whole entry): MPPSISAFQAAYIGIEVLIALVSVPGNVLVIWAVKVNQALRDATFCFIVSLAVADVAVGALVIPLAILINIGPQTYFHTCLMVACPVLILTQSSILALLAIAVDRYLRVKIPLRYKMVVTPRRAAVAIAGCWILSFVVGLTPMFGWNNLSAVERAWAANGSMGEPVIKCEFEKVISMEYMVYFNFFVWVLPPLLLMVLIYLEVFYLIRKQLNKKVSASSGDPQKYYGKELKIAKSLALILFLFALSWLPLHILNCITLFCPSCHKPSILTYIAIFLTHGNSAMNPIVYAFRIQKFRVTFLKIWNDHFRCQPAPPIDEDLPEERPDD
Protocol: Aliquots of cell membranes (30 ug proteins) were incubated at 25 °C for 180 min in 500 uL of binding buffer (50 mM Tris-HCl, 2 mM MgCl2, 2 units/mL ADA, pH 7.4) containing [3H]DPCPX (3 nM) and six different concentrations of the tested compounds. Non-specific binding was determined in the presence of 50 µM R-PIA. The dissociation constant (Kd) of [3H]DPCPX in human A1 AR CHO cell membranes was 3 nM.

[2] = biological target: Adenosine receptor A2a (Homo sapiens, UniProt P29274); experiment: A2A Adenosine Receptor Binding Assay
Chain of Adenosine receptor A2a (P29274 whole entry): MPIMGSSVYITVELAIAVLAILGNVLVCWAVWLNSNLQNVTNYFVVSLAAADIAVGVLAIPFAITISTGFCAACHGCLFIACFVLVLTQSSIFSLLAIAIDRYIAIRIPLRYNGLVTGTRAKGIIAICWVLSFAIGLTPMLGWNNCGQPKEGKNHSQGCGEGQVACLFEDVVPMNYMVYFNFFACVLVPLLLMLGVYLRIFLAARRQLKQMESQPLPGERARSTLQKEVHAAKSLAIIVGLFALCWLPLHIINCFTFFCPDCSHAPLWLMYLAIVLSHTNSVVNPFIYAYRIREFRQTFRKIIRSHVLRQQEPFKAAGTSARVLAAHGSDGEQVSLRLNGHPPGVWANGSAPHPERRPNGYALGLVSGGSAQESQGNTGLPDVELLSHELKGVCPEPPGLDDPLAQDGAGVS
Protocol: (§1) Aliquots of cell membranes (30 ug) were incubated at 25 °C for 90 min in 500 uL of binding buffer (50 mM Tris-HCl, 2 mm MgCl2, 2 units/mL ADA, pH 7.4) in the presence of 30 nM of [3H]NECA and six different concentrations of the tested compounds. Non-specific binding was determined in the presence of 100 uM R-PIA.

[3] = biological target: T2, Adenosine receptor A3 (Homo sapiens, UniProt P0DMS8); experiment: A3 Adenosine Receptor Binding Assay
T2 sequence (P0DMS8 whole entry): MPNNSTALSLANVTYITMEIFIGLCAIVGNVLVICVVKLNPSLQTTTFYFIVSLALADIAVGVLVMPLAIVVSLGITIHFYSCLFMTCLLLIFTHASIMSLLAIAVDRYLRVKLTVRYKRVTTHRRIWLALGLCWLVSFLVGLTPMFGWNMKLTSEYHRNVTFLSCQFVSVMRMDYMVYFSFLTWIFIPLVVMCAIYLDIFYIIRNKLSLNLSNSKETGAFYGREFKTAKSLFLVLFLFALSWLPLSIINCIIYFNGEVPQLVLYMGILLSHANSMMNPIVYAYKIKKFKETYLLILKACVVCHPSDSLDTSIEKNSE
Protocol: as §1, with “(90” for “(30”, “180” for “90”, “5 mM” for “2 mm”, “MgCl2, 1 mM EDTA,” for “MgCl2,”, “nm” for “nM of”

How did the EC50 [1] turn out when CCCOc1cc(N)nc(SCc2ccccc2)n1 [4-amino-6-alkyloxy-2-benzylthiopyrimidines (4)] was run?
The EC50 was 0.49 µM.

What about the Ki [1] of the same compound?
Its Ki is 1.24 µM.

What about the Ki [2] of the same compound?
The Ki was greater than 10 µM.

And the Ki [3]?
Its Ki is greater than 10 µM.

Which Ki [1] does the source give for Nc1cc(OCc2ccccc2)nc(SCc2ccccc2)n1 [4-amino-6-alkyloxy-2-benzylthiopyrimidines (6)] here?
Its Ki is 1.2 µM.

And the Ki [2]?
Its Ki is greater than 10 µM.

And the Ki [3]?
The Ki was greater than 10 µM.

What does the source list for CC(C)COc1cc(N)nc(SCc2ccccc2)n1 [4-amino-6-alkyloxy-2-benzylthiopyrimidines (5)]?
EC50 [1]: 0.87 µM; Ki [1]: 1.94 µM; Ki [2]: > 10 µM; Ki [3]: > 10 µM
